The source of these data is US20240261367A1, “CYCLIC PEPTIDE IMMUNOMODULATORS” (priority 2021, published 2024).

pIC50: −log10 of the molar value. Starred links: 1 amine or outer side, 2 acyl side, 3 side chain; linkers in the order of their positions; H or OH if unused. Positions of bridges follow the written chain, without caps; N, C: chain ends. Non-standard residues stand in square brackets, D forms with d. Residues, ends and D or L forms follow the SMILES beside them. *: point of attachment. X2 = COC(=O)CCCCCCCCCCCCCCCCC(=O)N[C@@H](CCC(=O)NCCOCCOCCOCCOCCOCCOCCOCCOCCOCCOCCOCCn1cc(C[C@H](NC(=N)CNC(=O)[C@H](CSCC(=O)[*:1])NC(=N)[C@H](CC(C)C)N[*:2])C(=O)OC)nn1)C(=O)OC; X1 = COC(=O)CCCCCCCCCCCCCCCCC(=O)N[C@@H](CCC(=O)NCCOCCOCCOCCOCCOCCOCCOCCOCCOCCOCCOCCn1cc(C[C@H](NC(=N)CN*)C(=O)O)nn1)C(=O)O; Trp(1-CH2CO2Me) = COC(=O)Cn1cc(C[C@H](N)C(=O)O)c2ccccc21; Trp(1-CH2COOH) = N[C@@H](Cc1cn(CC(=O)O)c2ccccc12)C(=O)O; Hyp = O=C(O)[C@@H]1C[C@@H](O)CN1; NMeNle = CCCC[C@H](NC)C(=O)O; NMeA = CN[C@@H](C)C(=O)O; Dab = NCC[C@H](N)C(=O)O; Dap = NC[C@H](N)C(=O)O

T1 sequence (Q9NZQ7 18-239): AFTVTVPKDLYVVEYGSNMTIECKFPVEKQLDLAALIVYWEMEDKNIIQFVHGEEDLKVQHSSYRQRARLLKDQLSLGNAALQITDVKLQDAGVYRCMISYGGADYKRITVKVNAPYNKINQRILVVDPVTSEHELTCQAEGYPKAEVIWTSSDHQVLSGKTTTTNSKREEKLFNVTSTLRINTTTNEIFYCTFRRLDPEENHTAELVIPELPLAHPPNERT

The first experiment addresses T1, PD-1/PD-L1 (Homo sapiens, UniProt Q9NZQ7).
T1 construct: TVMV protease site linker (C); made in house; host or cells: HEK293T cells
The experiment can be described thus: PD-1/PD-L1 Homogenous Time-Resolved Fluorescence (HTRF) binding assay. The note with it: 10 min incubation. The source says: Methods for Testing the Ability of Macrocyclic Peptides to Compete for the Binding of PD-1 to PD-L1 Using Homogenous Time-Resolved Fluorescence (HTRF) Binding Assays
The ability of the compounds of formula (I) to bind to PD-L1 was investigated using a PD-1/PD-L1 Homogenous Time-Resolved Fluorescence (HTRF) binding assay.
Homogenous Time-Resolved Fluorescence (HTRF) Binding Assay
The interaction of PD-1 and PD-L1 can be assessed using soluble, purified preparations of the extracellular domains of the two proteins. The PD-1 and PD-L1 protein extracellular domains were expressed as fusion proteins with detection tags, for PD-1, the tag was the Fc portion of Immunoglobulin (PD-1-Ig) and for PD-L1 it was the 6 histidine motif (PD-L1-His). All binding studies were performed in an HTRF assay buffer consisting of dPBS supplemented with 0.1% […] bovine serum albumin and 0.05% (v/v) Tween-20. […] HTRF detection was achieved using europium crypate-labeled anti-Ig (1 nM final) and allophycocyanin (APC) labeled anti-His (20 nM final). Antibodies were diluted in HTRF detection buffer and 5 μl was dispensed on top of the binding reaction. The reaction mixture was allowed to equilibrate for 30 minutes and the resulting signal (665 nm/620 nm ratio) was obtained using an EnVision fluorometer. Additional binding assays were established between the human proteins PD-1-Ig/PD-L2-His (20 & 5 nM, respectively) and CD80-His/PD-L1-Ig (100 & 10 nM, respectively).
Recombinant Proteins: Human PD-1 (25-167) with a C-terminal human Fc domain of immunoglobulin G (Ig) epitope tag [hPD-1 (25-167)-3S-IG] and human PD-L1 (18-239) with a C-terminal His epitope tag [hPD-L1(18-239)-TVMV-His] were expressed in HEK293T cells and purified sequentially by ProteinA affinity chromatography and size exclusion chromatography. Human PD-L2-His and CD80-His was obtained through commercial sources.
Table 1 lists the IC50 values for representative examples of this disclosure measured in the PD-1/PD-L1 Homogenous Time-Resolved Fluorescence (HTRF) binding assay.
On the technique in general: In TR-FRET formats the signal depends on donor and acceptor labels being close together.
As usually defined, the pIC50 is the IC50 on a negative log10 scale, so that one unit is a factor of ten. With `CCCC[C@H]1C(=O)N(C)[C@@H](CCCC)C(=O)N[C@@H](CC(C)C)C(=O)N[C@H](C(=O)NCC(=O)N[C@@H](Cc2cn(CCOCCOCCOCCOCCOCCOCCOCCOCCOCCOCCOCCNC(=O)CC[C@H](NC(=O)CCCCCCCCCCCCCCCCC(=O)O)C(=O)O)nn2)C(=O)O)CSCC(=O)N[C@@H](Cc2ccc(O)cc2)C(=O)N(C)[C@@H](C)C(=O)N[C@@H](CC(N)=O)C(=O)N2CCC[C@H]2C(=O)N[C@@H](CNC(=O)CC[C@@H](C)[C@H]2CC[C@H]3[C@@H]4[C@H](O)C[C@@H]5C[C@H](O)CC[C@]5(C)[C@H]4C[C@H](O)[C@]23C)C(=O)N[C@@H](CC(C)C)C(=O)N2C[C@H](O)C[C@H]2C(=O)N[C@@H](Cc2c[nH]c3ccccc23)C(=O)N[C@@H](CCN)C(=O)N[C@@H](Cc2cn(CC(=O)O)c3ccccc23)C(=O)N1C` [Example 1006], the pIC50 was 7.55.

Staying with this experiment, now noted: PD-L1-His (10 nM) pre-incubated with inhibitor 15 m, then PD-1-Ig (20 nM).
Turning to `CCCC[C@H]1C(=O)N(C)[C@@H](CCCC)C(=O)N[C@@H](CC(C)C)C(=N)N[C@H](C(=O)NCC(=N)N[C@@H](Cc2cn(CCOCCOCCOCCOCCOCCOCCOCCOCCOCCOCCOCCNC(=O)CC[C@H](NC(=O)CCCCCCCCCCCCCCCCC(=O)OC)C(=O)OC)nn2)C(=O)OC)CSCC(=O)NCC(=O)N(C)[C@@H](C)C(=O)N[C@@H](CC(N)=O)C(=O)N2CCC[C@H]2C(=O)N[C@@H](CN)C(=O)N[C@@H](CC(C)C)C(=O)N2C[C@H](O)C[C@H]2C(=O)N[C@@H](Cc2c[nH]c3ccccc23)C(=O)N[C@@H](CCN)C(=O)N[C@@H](Cc2cn(CC(=O)OC)c3ccccc23)C(=O)N1C` [Example 1001] (G[NMeA]NP[Dap]L[Hyp]W[Dab][Trp(1-CH2CO2Me)][NMeNle][NMeNle]; linker N-C via X2), the pIC50 is 8.14.
On the same count and under the same terms, then `CCCC[C@H]1C(=O)N(C)[C@@H](CCCC)C(=O)N[C@@H](CC(C)C)C(=O)N[C@H](C(=O)NCC(=O)N[C@@H](Cc2cn(CCOCCOCCOCCOCCOCCOCCOCCOCCOCCOCCOCCNC(=O)CC[C@H](NC(=O)CCCCCCCCCCCCCCCCC(=O)O)C(=O)O)nn2)C(=O)O)CSCC(=O)N[C@@H](Cc2ccc(O)cc2)C(=O)N(C)[C@@H](C)C(=O)N[C@@H](CC(N)=O)C(=O)N2CCC[C@H]2C(=O)N[C@@H](CNC(=O)OC(C)(C)C)C(=O)N[C@@H](CC(C)C)C(=O)N2C[C@H](O)C[C@H]2C(=O)N[C@@H](Cc2c[nH]c3ccccc23)C(=O)N[C@@H](CCNC(=O)OC(C)(C)C)C(=O)N[C@@H](Cc2cn(CC(=O)O)c3ccccc23)C(=O)N1C` [Example 1002], with 8.19.
The molecule `CCCC[C@H]1C(=O)N(C)[C@@H](CCCC)C(=O)N[C@@H](CC(C)C)C(=O)N[C@H](C(=O)NCC(=O)N[C@@H](Cc2cn(CCOCCOCCOCCOCCOCCOCCOCCOCCOCCOCCOCCNC(=O)CC[C@H](NC(=O)CCCCCCCCCCCCCCCCC(=O)O)C(=O)O)nn2)C(=O)O)CSCC(=O)N[C@@H](Cc2ccc(O)cc2)C(=O)N(C)[C@@H](C)C(=O)N[C@@H](CC(N)=O)C(=O)N2CCC[C@H]2C(=O)N[C@@H](CNC(=O)OC(C)C)C(=O)N[C@@H](CC(C)C)C(=O)N2C[C@H](O)C[C@H]2C(=O)N[C@@H](Cc2c[nH]c3ccccc23)C(=O)N[C@@H](CCN)C(=O)N[C@@H](Cc2cn(CC(=O)O)c3ccccc23)C(=O)N1C` [Example 1003] had a pIC50 of 8.04. The pIC50 values of the last two molecules are within 0.2 log units of each other.
Same read-out and setting: the value for `C=C(CC[C@@H]1NC(=O)[C@H](Cc2c[nH]c3ccccc23)NC(=O)[C@@H]2C[C@@H](O)CN2C(=O)[C@H](CC(C)C)NC(=O)[C@H](CNC(=O)CC[C@@H](C)[C@H]2CC[C@H]3[C@@H]4[C@H](O)C[C@@H]5C[C@H](O)CC[C@]5(C)[C@H]4C[C@H](O)[C@]23C)NC(=O)[C@@H]2CCCN2C(=O)[C@H](CC(N)=O)NC(=O)[C@H](C)N(C)C(=O)[C@H](Cc2ccc(O)cc2)NC(=O)CSC[C@@H](C(=O)NCC(=O)N[C@@H](Cc2cn(CCOCCOCCOCCOCCOCCOCCOCCOCCOCCOCCOCCNC(=O)CC[C@H](NC(=O)CCCCCCCCCCCCCCCCC(=O)O)C(=O)O)nn2)C(=O)O)NC(=O)[C@H](CC(C)C)NC(=O)[C@H](CCCC)N(C)C(=O)[C@H](CCCC)N(C)C(=O)[C@H](Cc2cn(CC(=O)O)c3ccccc23)NC1=O)CC[C@@H](C)[C@H]1CC[C@H]2[C@@H]3[C@H](O)C[C@@H]4C[C@H](O)CC[C@]4(C)[C@H]3C[C@H](O)[C@]12C` [Example 1004] was 6.70; that for `CCCC[C@H]1C(=O)N(C)[C@@H](CCCC)C(=O)N[C@@H](CC(C)C)C(=O)N[C@H](C(=O)NCC(=O)N[C@@H](Cc2cn(CCOCCOCCOCCOCCOCCOCCOCCOCCOCCOCCOCCNC(=O)CC[C@H](NC(=O)CCCCCCCCCCCCCCCCC(=O)OCC)C(=O)OC)nn2)C(=O)O)CSCC(=O)N[C@@H](Cc2ccc(O)cc2)C(=O)N(C)[C@@H](C)C(=O)N[C@@H](CC(N)=O)C(=O)N2CCC[C@H]2C(=O)N[C@@H](CN)C(=O)N[C@@H](CC(C)C)C(=O)N2C[C@H](O)C[C@H]2C(=O)N[C@@H](Cc2c[nH]c3ccccc23)C(=O)N[C@@H](CCN)C(=O)N[C@@H](Cc2cn(CC(=O)O)c3ccccc23)C(=O)N1C` [Example 1005] was 7.92.
On the same count and under the same terms, the value for `CCCC[C@H]1C(=O)N(C)[C@@H](CCCC)C(=O)N[C@@H](CC(C)C)C(=O)N[C@H](C(=O)NCC(=N)N[C@@H](Cc2cn(CCOCCOCCOCCOCCOCCOCCOCCOCCOCCOCCOCCNC(=O)CC[C@H](NC(=O)CCCCCCCCCCCCCCCCC(=O)OC)C(=O)O)nn2)C(=O)O)CSCC(=O)N[C@@H](Cc2ccc(O)cc2)C(=O)N(C)[C@@H](C)C(=O)N[C@@H](CC(N)=O)C(=O)N2CCC[C@H]2C(=O)N[C@@H](CN)C(=O)N[C@@H](CC(C)C)C(=O)N2C[C@H](O)C[C@H]2C(=O)N[C@@H](Cc2c[nH]c3ccccc23)C(=O)N[C@@H](CCN)C(=O)N[C@@H](Cc2cn(CC(=O)O)c3ccccc23)C(=O)N1C` [Example 1007] ({CH2CO}-Y[NMeA]NP[Dap]L[Hyp]W[Dab][Trp(1-CH2COOH)][NMeNle][NMeNle]LC-X1; thioether N-14) was 7.68; that for `CCCC[C@H]1C(=O)N(C)[C@@H](CCCC)C(=O)N[C@@H](CC(C)C)C(=O)N[C@H](C(=O)NCC(=O)N[C@@H](Cc2cn(CCOCCOCCOCCOCCOCCOCCOCCOCCOCCOCCOCCNC(=O)CC[C@H](NC(=O)CCCCCCCCCCCCCCCCC(=O)O)C(=O)O)nn2)C(=O)O)CSCC(=O)N[C@@H](Cc2ccc(O)cc2)C(=O)N(C)[C@@H](C)C(=O)N[C@@H](CC(N)=O)C(=O)N2CCC[C@H]2C(=O)N[C@@H](CNC(=O)OCC)C(=O)N[C@@H](CC(C)C)C(=O)N2C[C@H](O)C[C@H]2C(=O)N[C@@H](Cc2c[nH]c3ccccc23)C(=O)N[C@@H](CCNC(=O)OCC)C(=O)N[C@@H](CC2=CC(CC(=O)O)c3ccccc32)C(=O)N1C` (stereo partly drawn) [Example 1008] was 8.23; that for `CCCC[C@H]1C(=O)N(C)[C@@H](CCCC)C(=O)N[C@@H](CC(C)C)C(=O)N[C@H](C(=O)NCC(=O)N[C@@H](Cc2cn(CCOCCOCCOCCOCCOCCOCCOCCOCCOCCOCCOCCNC(=O)CC[C@H](NC(=O)CCCCCCCCCCCCCCCCC(=O)O)C(=O)O)nn2)C(=O)O)CSCC(=O)N[C@@H](Cc2ccc(O)cc2)C(=O)N(C)[C@@H](C)C(=O)N[C@@H](CC(N)=O)C(=O)N2CCC[C@H]2C(=O)N[C@@H](CNC(=O)OCC)C(=O)N[C@@H](CC(C)C)C(=O)N2C[C@H](O)C[C@H]2C(=O)N[C@@H](Cc2c[nH]c3ccccc23)C(=O)N[C@@H](CCN)C(=O)N[C@@H](CC2=CC(CC(=O)O)c3ccccc32)C(=O)N1C` (stereo partly drawn) [Example 1009] was 7.92.
